According to publication PMC10390775, “CETP inhibitor evacetrapib enters mouse brain tissue” (Frontiers in Pharmacology, 2023):
Several values for one entry are separate records, joined by “and”; a condition that tells them apart may be missing. Identical values can stand only once. Like-named read-outs stand apart in the source and are kept apart here.

What was measured:
[1] = Pharmacokinetics of evacetrapib in plasma, liver and brain after a single tail vein injection (UHPLC-MS-qTOF); type: in vivo, hCETPtg mice (C57BL/6J background); conditions: for Brain peak concentration above plasma IC50: IC50 36 nM in human plasma; for k el: read-out: Kβ (elimination rate constant) (converted); for half-life: read-out: t1/2β (half-life) (converted); for Kp: accounting for residual blood, read-out: Tissue penetration ratio (AUC brain / AUC plasma); for MRT: read-out: MRT (mean residence time); for clearance: read-out: CL (drug clearance) (converted); for Vd: read-out: Vss (volume of distribution at steady state)
Procedure: The experiment was performed in conformity with the OECD Guidelines 417 ([OECD, 2010]). Male hCETPtg mice were chosen for the pharmacokinetic analysis. Mice were fed Teklad Global Diets #2018 from Envigo, Canada, for 8 weeks starting from birth, followed by a diet change of modified low-fat RD Western diet to match TD.08485 with 1% cholesterol from research diets #D16121201 for a duration of 3–4 weeks. Throughout that period, tap water was provided ad libitum. Initially, evacetrapib was solubilized in 20% of the final solution volume of Kolliphor® EL (pH range 6.0–8.0, cat# C5135) by alternating between 5 min intervals using an ultrasonic water bath at 4°C and a hot water bath at 50°C until complete dissolution. Then, 80% of the final volume was added (isotonic glucose solution 50 g/L glucose containing D-(+)-glucose Sigma cat# G7021 in MilliQ water, sterile filtered).
CETP inhibitor evacetrapib was administered through tail vein injection at doses of 40 mg/kg body weight (BW) or 120 mg/kg BW. Mice weighed 28.42 ± 3.16 g on the day of injection. They were randomly divided into two groups: 24 mice received a dose of 40 mg/kg BW of evacetrapib and the other 24 received a dose of 120 mg/kg BW. Mice from both groups were euthanized at 0, 0.5, 2, 6, 12, and 24 h after injection. Mice euthanized at later time points had continued access to food and water until the end of the experiment. Blood was collected (300–500 µL) at euthanasia for each mouse by cardiac puncture. Blood plasma was extracted using 10 µL of 1 M EDTA pH 8.0 solution in MilliQ water. Brain and liver tissues were collected immediately after euthanasia, rinsed in 0.9% NaCl solution, and snap-frozen in liquid nitrogen. Samples were stored at −80°C until analysis.
Sample preparation and digestion for evacetrapib analysis were performed using UHPLC-MS-qTOF. Working solutions from a stock of evacetrapib were prepared at concentrations of 10 μmol, 100 nmol, 1 nmol, 500 pmol, and 125 pmol per ml of methanol. Working solutions of anacetrapib used as an internal standard were prepared at concentrations of 10 μmol, 100 nmol, and 1 nmol per ml from a stock solution.
Brain and liver samples were homogenized using a polytron supplemented with a carbonate buffer at pH 9.8. The volume was adjusted such that each sample reached a final concentration of 100 mg/ml of buffer. A volume of 0.5 ml of homogenate was transferred to a Pyrex tube and enriched with 100 µL of 1 nmol/ml anacetrapib solution used as an internal standard. Then, samples were extracted twice using 4 ml of saturated ethyl acetate. For each extraction, samples were shaken for 30 min using a lateral shaker, followed by a centrifugation round (20 min, 3,000 rpm, 4°C). Organic phases were collected, combined, and then evaporated until dry under a nitrogen stream in a rotating bath at 40°C. The residues were resuspended in methanol. Samples were vortexed until no residues were left. Resuspended residues for both the brain and liver were then centrifuged (20 min, 3,000 rpm, 4°C). The supernatant was recovered, transferred into new vials, and injected into UHPLC-MS-qTOF. For the plasma measurement, 20 µL of plasma was enriched with 100 µL of 1 nmol/ml anacetrapib solution in a microtube. Evacetrapib was extracted using two steps of ethanol wash (200 µL) followed by an incubation time (30 min, 22°C) and centrifugation (5 min, 16,000 g, 10°C). Samples were dried under a gentle nitrogen stream to separate the liquid phase from the solid phase. The residues were subsequently dissolved in methanol, vortexed until no residues were left, and centrifuged (20 min, 3,000 rpm, 4°C). The supernatant was recovered, transferred into new vials, and injected into UHPLC-MS-qTOF.
Quantification was performed using a seven-point calibration curve with the internal standard correction prepared in the brain, liver, or plasma, respectively. […]

[2] = continuous administration; ref Small et al., 2015; Nurmohamed et al., 2022; cited from earlier work
[3] = cited from earlier work
[4] = tested on: CETP in human plasma; design: method as in Cao et al., 2011; conditions: ref Cao et al., 2011, read-out: IC50 of CETP inhibition; cited from earlier work
[5] = liver, 120 mg/kg BW i.v., 120 mg/kg
[6] = male, hCETPtg (C57BL/6J background), mouse, brain, iv, 40 mg/kg, brain, 40 mg/kg BW i.v.
[7] = male, hCETPtg (C57BL/6J background), mouse, brain, iv, 120 mg/kg, brain, 120 mg/kg BW i.v.
[8] = male, hCETPtg (C57BL/6J background), mouse, iv, plasma, 40 mg/kg BW i.v.
[9] = male, hCETPtg (C57BL/6J background), mouse, iv, plasma, 120 mg/kg BW i.v.
[10] = male, hCETPtg (C57BL/6J background), mouse, liver, iv, 40 mg/kg, liver, 40 mg/kg BW i.v.
[11] = male, hCETPtg (C57BL/6J background), mouse, liver, iv, 120 mg/kg, liver, 120 mg/kg BW i.v.
[12] = male, hCETPtg (C57BL/6J background), mouse, plasma, iv, 40 mg/kg, plasma, 40 mg/kg BW i.v.
[13] = male, hCETPtg (C57BL/6J background), mouse, plasma, iv, 120 mg/kg, plasma, 120 mg/kg BW i.v.

For `Cc1cc(C)c2c(c1)[C@@H](N(Cc1cc(C(F)(F)F)cc(C(F)(F)F)c1)c1nnn(C)n1)CCCN2C[C@H]1CC[C@H](C(=O)O)CC1` [evacetrapib], the “Peak concentration in the brain after correction for residual blood” value ([1]; 40 mg/kg BW i.v.) was 1.5 µM, the “Av. conc. in brain, calculated (corrected for residual blood)” value ([1]; 40 mg/kg BW i.v., 0 h) was 0.00 nmol/g and the “Av. conc. in brain, measured (not corrected for residual blood)” value ([1]; 40 mg/kg BW i.v., 0 h) was 2.05 nmol/g. The “Av. conc. in brain, calculated (corrected for residual blood)” value ([1]; 40 mg/kg BW i.v., 0.5 h) was 1.5 nmol/g and 1.53 nmol/g, the “Av. conc. in brain, measured (not corrected for residual blood)” value ([1]; 40 mg/kg BW i.v., 0.5 h) was 2.21 nmol/g and the “Av. conc. in brain, calculated (corrected for residual blood)” value ([1]; 40 mg/kg BW i.v., 2 h) was 1.0 nmol/g and 1.03 nmol/g. For the same compound, the “Av. conc. in brain, measured (not corrected for residual blood)” value ([1]; 40 mg/kg BW i.v., 2 h) was 1.41 nmol/g, the “Av. conc. in brain, calculated (corrected for residual blood)” value ([1]; 40 mg/kg BW i.v., 6 h) was 0.5 nmol/g and 0.50 nmol/g and the “Av. conc. in brain, measured (not corrected for residual blood)” value ([1]; 40 mg/kg BW i.v., 6 h) was 0.57 nmol/g. The “Av. conc. in brain, calculated (corrected for residual blood)” value ([1]; 40 mg/kg BW i.v., 12 h) was 0.1 nmol/g and 0.11 nmol/g, the “Av. conc. in brain, measured (not corrected for residual blood)” value ([1]; 40 mg/kg BW i.v., 12 h) was 0.12 nmol/g and the “Av. conc. in brain, calculated (corrected for residual blood)” value ([1]; 40 mg/kg BW i.v., 24 h) was 0.00 nmol/g. The “Av. conc. in brain, measured (not corrected for residual blood)” value ([1]; 40 mg/kg BW i.v., 24 h) was 0.00 nmol/g, the “Brain peak concentration above plasma IC50” value ([1]; 40 mg/kg BW i.v.) was “approximately 40 fold” and the “Peak concentration in the brain after correction for residual blood” value ([1]; 120 mg/kg BW i.v.) was 16.7 µM. For the same compound, the “Av. conc. in brain, calculated (corrected for residual blood)” value ([1]; 120 mg/kg BW i.v., 0 h) was 0 nmol/g and 0.00 nmol/g, the “Av. conc. in brain, measured (not corrected for residual blood)” value ([1]; 120 mg/kg BW i.v., 0 h) was 22.2 nmol/g and the “Av. conc. in brain, calculated (corrected for residual blood)” value ([1]; 120 mg/kg BW i.v., 0.5 h) was 16.7 nmol/g. For the same compound, the “Av. conc. in brain, measured (not corrected for residual blood)” value ([1]; 120 mg/kg BW i.v., 0.5 h) was 25.8 nmol/g, the “Av. conc. in brain, calculated (corrected for residual blood)” value ([1]; 120 mg/kg BW i.v., 2 h) was 15.3 nmol/g and the “Av. conc. in brain, measured (not corrected for residual blood)” value ([1]; 120 mg/kg BW i.v., 2 h) was 17.1 nmol/g. The “Av. conc. in brain, calculated (corrected for residual blood)” value ([1]; 120 mg/kg BW i.v., 6 h) was 5.0 nmol/g and 4.96 nmol/g, the “Av. conc. in brain, measured (not corrected for residual blood)” value ([1]; 120 mg/kg BW i.v., 6 h) was 5.36 nmol/g and the “Av. conc. in brain, calculated (corrected for residual blood)” value ([1]; 120 mg/kg BW i.v., 12 h) was 1.0 nmol/g and 1.00 nmol/g. The “Av. conc. in brain, measured (not corrected for residual blood)” value ([1]; 120 mg/kg BW i.v., 12 h) was 1.11 nmol/g, the “Av. conc. in brain, calculated (corrected for residual blood)” value ([1]; 120 mg/kg BW i.v., 24 h) was 0.02 nmol/g and the “Av. conc. in brain, measured (not corrected for residual blood)” value ([1]; 120 mg/kg BW i.v., 24 h) was 0.03 nmol/g. For the same compound, the “Brain peak concentration above plasma IC50” value ([1]; 120 mg/kg BW i.v.) was about 450 fold, the “Increase of tissue penetration ratio from the low to the high dose” value ([1]; 120 vs 40 mg/kg BW i.v.) was 1.63 fold and the AUMC ([1]; brain, 40 mg/kg BW i.v.) was 39.2 nmol x h^2/mL. It also gave an AUC ([1]; brain, 40 mg/kg BW i.v., 24 h) of 10.6 nmol x h/mL, an AUMC ([1]; brain, 120 mg/kg BW i.v.) of 395 nmol x h^2/mL and an AUC ([1]; brain, 120 mg/kg BW i.v., 24 h) of 115 nmol x h/mL. For the same compound, the “Time of peak plasma values” ([1]; first sampling time point, 40 and 120 mg/kg BW i.v.) was 0 h, the “Entry into brain tissue” value ([1]; hCETPtg mice, i.v. injection) was “does enter the mouse brain tissue” and the AUMC ([1]; liver, 40 mg/kg BW i.v.) was 1183 nmol x h^2/mL. For the same compound, the AUC ([1]; liver, 40 mg/kg BW i.v., 24 h) was 267 nmol x h/mL, the “t1/2β (half-life)” value ([1]; liver, 40 mg/kg BW i.v., 40 mg/kg) was 3.0 h and the AUMC ([1]; liver, 120 mg/kg BW i.v.) was 3167 nmol x h^2/mL. The AUC ([1]; liver, 120 mg/kg BW i.v., 24 h) was 881 nmol x h/mL, the “Kβ (elimination rate constant)” value [1, 5] was 0.2 h⁻¹ and the “t1/2β (half-life)” value [1, 5] was 3.2 h. For the same compound, the k el [1, 6] was 5.56e-05 s⁻¹, the half-life [1, 6] was 168 min and the k el [1, 7] was 8.33e-05 s⁻¹. For the same compound, the half-life [1, 7] was 150 min, the Kp ([1]; male, hCETPtg (C57BL/6J background), mouse, brain, iv, 40 mg/kg BW i.v.) was 0.08 and the Kp ([1]; male, hCETPtg (C57BL/6J background), mouse, brain, iv, 120 mg/kg BW i.v.) was 0.13. It also gave a Tmax ([1]; male, hCETPtg (C57BL/6J background), mouse, brain, iv, both doses, 40 and 120 mg/kg BW i.v., read-out: Time of peak concentration in the brain) of 30 min, an MRT ([1]; male, hCETPtg (C57BL/6J background), mouse, iv, brain, 40 mg/kg BW i.v.) of 3.7 h and an MRT ([1]; male, hCETPtg (C57BL/6J background), mouse, iv, brain, 120 mg/kg BW i.v.) of 3.4 h. For the same compound, the MRT ([1]; male, hCETPtg (C57BL/6J background), mouse, iv, liver, 40 mg/kg BW i.v.) was 4.4 h, the MRT ([1]; male, hCETPtg (C57BL/6J background), mouse, iv, liver, 120 mg/kg BW i.v.) was 3.6 h and the clearance [1, 8] was 0.157 mL/min. The MRT [1, 8] was 2 h, the Vd [1, 8] was 0.0185 L and the clearance [1, 9] was 0.055 mL/min. It also gave an MRT [1, 9] of 1.6 h, a Vd [1, 9] of 0.0053 L and a k el [1, 10] of 5.56e-05 s⁻¹. The half-life [1, 10] was 168 min, the k el [1, 11] was 8.33e-05 s⁻¹ and the half-life [1, 11] was 150 min. The k el [1, 12] was 0.000111 s⁻¹, the half-life [1, 12] was 138 min and the k el [1, 13] was 5.56e-05 s⁻¹. It also gave a half-life [1, 13] of 180 min, an AUMC ([1]; plasma, 40 mg/kg BW i.v.) of 398 nmol x h^2/mL and a Kα ([1]; plasma, 40 mg/kg BW i.v.) of 6.5 h⁻¹. The t1/2α ([1]; plasma, 40 mg/kg BW i.v.) was 6 min, the AUC ([1]; plasma, 40 mg/kg BW i.v., 24 h) was 203 nmol x h/mL and the AUMC ([1]; plasma, 120 mg/kg BW i.v.) was 2297 nmol x h^2/mL. The Kα ([1]; plasma, 120 mg/kg BW i.v.) was 1.8 h⁻¹, the t1/2α ([1]; plasma, 120 mg/kg BW i.v.) was 24 min and the AUC ([1]; plasma, 120 mg/kg BW i.v., 24 h) was 1418 nmol x h/mL. The “Accumulation in adipose tissues” value [2] was “does not accumulate in adipose tissues”, the Tolerated dose ([3]; rat, in vivo, po) was “up to 600 mg/kg BW/day” and the Oral absorption fraction ([3]; rats, oral gavage, ref Takubo et al., 2014, Simic et al., 2017) was 25%. For the same compound, the IC50 [4] was 36 nM.
